# Where a name gives a salt, the structure may show the parent alone.
# Experiments:
# [1] = tested on: mature, ovariectomized rats; assay: 4-Day OVX Rat Uterine Agonist Assay; format: in vivo; details: 4 days of treatment, 3 doses
# Description: Cholesterol levels are also measured to compare relative ability to lower cholesterol with other SERMs. If there is any question of uterine stimulation, histological examination will determine epithelial cell height.
# [2] = tested on: Ishikawa human endometrial tumor cells; assay: Ishikawa Cell Proliferation Assay, antagonist mode (block of estradiol stimulation); format: cell-based
# Description: Ishikawa Cell Proliferation Assay: This assay measures cell proliferation (using an alkaline phosphatase readout) in both an agonist mode in the presence of a compound of the present invention alone, and in an antagonist mode in which the ability of a compound of the present invention to block estradiol stimulation of growth is measured.
# Ishikawa human endometrial tumor cells are maintained in MEM (minimum essential medium, with Earle's salts and L-Glutamine, Gibco BRL, Gaithersburg, Md.), supplemented with 10% fetal bovine serum (FBS) (V/V), (Gibco BRL). […]
# For the agonist mode, plates receive 25 μl/well of assay medium followed by 25 μl/well of a diluted compound of the present invention (at 6× the final concentrations). […] After a 20-minute incubation, plates are read on a spectophotometer at 405 nm.
# The data is fitted to a linear interpolation to derive EC50 (for agonist mode) or IC50 (for antagonist mode) values. For the antagonist mode, a % efficacy for each compound is calculated versus E2 (1 nM) alone. For the agonist mode, a % efficacy for each compound is calculated versus the response to tamoxifen.
# [3] = tested on: Ishikawa human endometrial tumor cells; assay: Ishikawa Cell Proliferation Assay, agonist mode (alkaline phosphatase readout); format: cell-based; details: versus the response to tamoxifen, read-out: relative % efficacy
# [4] = tested on: immature (3 week old) female rats; assay: 3-Day Rat Uterus Antagonist Assay; format: in vivo; details: oral, 3 days, with E2 0.1 mg/kg
# Description: 3-Day Rat Uterus Antagonist Assay: This model for uterine antagonism utilizes immature (3 week old) female rats that are highly sensitive to estrogenic stimulation of the uterus given that their circulating estrogen levels are prepubertal. The uteri from immature rats are fully responsive to exogenous estrogen, yet are quiescent in the absence of exogenous estrogen. Administration of exogenous estrogen to immature rats produces a reliable elevation of uterine weight, which can be used to study uterine antagonist effects.
# Test compounds are dissolved in 20% β-hydroxycyclodextrin and administered by oral gavage in a volume of 0.2 mL daily (15 min. prior to the ethynyl estradiol gavage). A vehicle control, E2 alone and E2+raloxifene are also done as controls. The animals are fasted overnight following the final dose. […]
# Uterine weight/body weight ratios (UWR) are calculated for each animal. The percent inhibition of the estrogen-induced response is then calculated by the following formula: percent inhibition=100×(UWRestrogen−UWRtest compound/UWRestrogen−UWRcontrol). […] Both the UWR data and the percent inhibition data were statistically analyzed by one way analysis of variance (ANOVA) with post-hoc testing by Fisher's PLSD when indicated by a p≦0.05. […]
smiles,measurement,setting,value
"CCS(=O)(=O)c1ccc(-c2ccc3cc(O)ccc3c2Oc2ccc(OCCN3CCCCC3)cc2)cc1.Cl [Example 14, 6-(4-Ethanesulfonyl-phenyl)-5-[4-(2-piperidin-1-yl-ethoxy)-phenoxy]-naphthalen-2-ol Hydrochloride]",uterine eosinophil peroxidase (EPO) activity,[1],did not cause dose-related statistically significant increases
"CS(=O)(=O)c1cccc(-c2ccc3cc(O)ccc3c2Oc2ccc(OCCN3CCCCC3)cc2)c1 [Example 16, 6-(3-Methanesulfonyl-phenyl)-5-[4-(2-piperidin-1-yl-ethoxy)-phenoxy]-naphthalen-2-ol Hydrochloride]",IC50,[2]; 1 nM E2,35.2 nM
same,Emax,"[2]; versus E2 (1 nM) alone, read-out: % efficacy (inhibition of the 1 nM estradiol response)",107%
"CCS(=O)(=O)c1cc(-c2ccc3cc(O)ccc3c2Oc2ccc(OCCN3CCCCC3)cc2)cc(S(=O)(=O)CC)c1 [Example 56, 6-(3,5-Bis-ethanesulfonyl-phenyl)-5-[4-(2-piperidin-1-yl-ethoxy)-phenoxy]-naphthalen-2-ol Hydrochloride]",Emax,[3],71.8%
"CS(=O)(=O)c1ccc(-c2sc3cc(O)ccc3c2Oc2ccc(OCCN3CCCCC3)cc2)cc1.Cl [Example 92, 2-(4-Methanesulfonyl-phenyl)-3-[4-(2-piperidin-1-yl-ethoxy)-phenoxy]-benzo[b]thiophen-6-ol Hydrochloride]",% antagonism,[4],62.7%
same,ED50,[4],0.53 mpk
